Patent US20050112573A1, “Method of detecting toxic substance” (priority 2001, published 2005)

Tested on: yeast genes (level of expressed mRNA)
Test: DNA chip analysis of expressed mRNA of yeast genes after 2 h culture with a toxic chemical substance
Type: cell-based, Saccharomyces cerevisiae S288C
Conditions: for The level of expressed mRNA in the presence of chemical substance/ (ratio to absence of chemical substance): stress protein genes, DNA chip; for The level of expressed mRNA in the presence of chemical substance/ in its absence, gene YPR184W: yeast gene YPR184W
Procedure, shortened: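 S. cerevisiae S288C in YPD at 25 °C was exposed at log phase for 2 h to a growth-inhibiting, non-lethal concentration of the chemical. Poly(A) mRNA was reverse-transcribed with Cy3- or Cy5-dUTP and hybridized to a whole-genome yeast DNA chip (65 °C, >12 h). Values are fluorescence ratios versus untreated cells.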

Structure (SMILES): C[S+](C)[O-] [(15), dimethylsulfoxide]
- The level of expressed mRNA in the presence of chemical substance/The level of expressed mRNA in the absence of chemical substance (yeast gene YMR314W): 1.2
- The level of expressed mRNA in the presence of chemical substance/The level of expressed mRNA in the absence of chemical substance (yeast gene YNL006W): 0.7
- The level of expressed mRNA in the presence of chemical substance/The level of expressed mRNA in the absence of chemical substance (yeast gene YNL007C): 0.8
- The level of expressed mRNA in the presence of chemical substance/ (in its absence), gene YNL025C (yeast gene YNL025C, ratio of DNA chip fluorescence intensity to that without chemical substance): 1.4
- The level of expressed mRNA in the presence of chemical substance/ (ratio to absence of chemical substance) (yeast gene YNL064C): 0.7
- The level of expressed mRNA in the presence of chemical substance/ (ratio to absence), gene YNL073W (yeast gene YNL073W, mitochondria-located protein genes, 2 h culture with chemical): 0.7
- The level of expressed mRNA in the presence of chemical substance/The level of expressed mRNA in the absence of chemical substance (yeast gene YNL093W): 0.6
- The level of expressed mRNA in the presence of chemical substance/ (in its absence), gene YNL192W (yeast gene YNL192W, ratio of DNA chip fluorescence intensity to that without chemical substance): 2.1
- The level of expressed mRNA in the presence of chemical substance/The level of expressed mRNA in the absence of chemical substance (yeast gene YNL333W): 1.0
- The level of expressed mRNA in the presence of chemical substance/The level of expressed mRNA in the absence of chemical substance (yeast gene YNR010W): 0.8
- The level of expressed mRNA in the presence of chemical substance/The level of expressed mRNA in the absence of chemical substance (yeast gene YNR069C): 1.0
- The level of expressed mRNA in the presence of chemical substance/ (in its absence), gene YNR072W (yeast gene YNR072W, ratio of DNA chip fluorescence intensity to that without chemical substance): 1.8
- The level of expressed mRNA in the presence of chemical substance/ (ratio to absence of chemical substance) (yeast gene YNR076W): 1.1
- The level of expressed mRNA in the presence of chemical substance/The level of expressed mRNA in the absence of chemical substance (yeast gene YOL013C): 2.7
- The level of expressed mRNA in the presence of chemical substance/ (ratio to absence), gene YOL096C (yeast gene YOL096C, mitochondria-located protein genes, 2 h culture with chemical): 1.0
- The level of expressed mRNA in the presence of chemical substance/ (in its absence), gene YOL096C (yeast gene YOL096C, ratio of DNA chip fluorescence intensity to that without chemical substance): 1.0
- The level of expressed mRNA in the presence of chemical substance/ (in its absence), gene YOL108C (yeast gene YOL108C, ratio of DNA chip fluorescence intensity to that without chemical substance): 1.5
- The level of expressed mRNA in the presence of chemical substance/ (in its absence), gene YOL116W (yeast gene YOL116W, ratio of DNA chip fluorescence intensity to that without chemical substance): 0.7
- The level of expressed mRNA in the presence of chemical substance/ (ratio to absence of chemical substance) (yeast gene YOL161C): 1.1
- The level of expressed mRNA in the presence of chemical substance/The level of expressed mRNA in the absence of chemical substance (yeast gene YOL164W): 1.0
- The level of expressed mRNA in the presence of chemical substance/ (ratio to absence of chemical substance) (yeast gene YOR008C): 0.9
- The level of expressed mRNA in the presence of chemical substance/ (ratio to absence of chemical substance) (yeast gene YOR009W): 0.6
- The level of expressed mRNA in the presence of chemical substance/ (ratio to absence of chemical substance) (yeast gene YOR010C): 0.6
- The level of expressed mRNA in the presence of chemical substance/The level of expressed mRNA in the absence of chemical substance (yeast gene YOR036W): 1.2
- The level of expressed mRNA in the presence of chemical substance/ (in its absence), gene YOR103C (yeast gene YOR103C, ratio of DNA chip fluorescence intensity to that without chemical substance): 1.4
- The level of expressed mRNA in the presence of chemical substance/The level of expressed mRNA in the absence of chemical substance (yeast gene YOR117W): 1.4
- The level of expressed mRNA in the presence of chemical substance/The level of expressed mRNA in the absence of chemical substance (yeast gene YOR124C): 1.3
- The level of expressed mRNA in the presence of chemical substance/The level of expressed mRNA in the absence of chemical substance (yeast gene YOR132W): 1.5
- The level of expressed mRNA in the presence of chemical substance/The level of expressed mRNA in the absence of chemical substance (yeast gene YOR157C): 1.9
- The level of expressed mRNA in the presence of chemical substance/ (in its absence), gene YOR180C (yeast gene YOR180C, ratio of DNA chip fluorescence intensity to that without chemical substance): 1.1
- The level of expressed mRNA in the presence of chemical substance/The level of expressed mRNA in the absence of chemical substance (yeast gene YOR181W): 3.4
- The level of expressed mRNA in the presence of chemical substance/The level of expressed mRNA in the absence of chemical substance (yeast gene YOR185C): 1.0
- The level of expressed mRNA in the presence of chemical substance/ (in its absence), gene YOR251C (yeast gene YOR251C, ratio of DNA chip fluorescence intensity to that without chemical substance): 0.6
- The level of expressed mRNA in the presence of chemical substance/The level of expressed mRNA in the absence of chemical substance (yeast gene YOR259C): 1.3
- The level of expressed mRNA in the presence of chemical substance/The level of expressed mRNA in the absence of chemical substance (yeast gene YOR261C): 1.3
- The level of expressed mRNA in the presence of chemical substance/The level of expressed mRNA in the absence of chemical substance (yeast gene YOR288C): 1.8
- The level of expressed mRNA in the presence of chemical substance/ (ratio to absence), gene YOR316C (yeast gene YOR316C, mitochondria-located protein genes, 2 h culture with chemical): 1.5
- The level of expressed mRNA in the presence of chemical substance/ (in its absence), gene YOR348C (yeast gene YOR348C, ratio of DNA chip fluorescence intensity to that without chemical substance): 1.6
- The level of expressed mRNA in the presence of chemical substance/The level of expressed mRNA in the absence of chemical substance (yeast gene YOR355W): 3.2
- The level of expressed mRNA in the presence of chemical substance/ (in its absence), gene YOR363C (yeast gene YOR363C, ratio of DNA chip fluorescence intensity to that without chemical substance): 1.1
- The level of expressed mRNA in the presence of chemical substance/The level of expressed mRNA in the absence of chemical substance (yeast gene YOR383C): 1.1
- The level of expressed mRNA in the presence of chemical substance/ (ratio to absence), gene YPL040C (yeast gene YPL040C, mitochondria-located protein genes, 2 h culture with chemical): 1.1
- The level of expressed mRNA in the presence of chemical substance/ (ratio to absence of chemical substance) (yeast gene YPL059W): 1.0
- The level of expressed mRNA in the presence of chemical substance/The level of expressed mRNA in the absence of chemical substance (yeast gene YPL089C): 2.6
- The level of expressed mRNA in the presence of chemical substance/The level of expressed mRNA in the absence of chemical substance (yeast gene YPL109C): 1.3
- The level of expressed mRNA in the presence of chemical substance/ (ratio to absence), gene YPL134C (yeast gene YPL134C, mitochondria-located protein genes, 2 h culture with chemical): 1.1
- The level of expressed mRNA in the presence of chemical substance/ (ratio to absence of chemical substance) (yeast gene YPL140C): 0.7
- The level of expressed mRNA in the presence of chemical substance/ (in its absence), gene YPL148C (yeast gene YPL148C, ratio of DNA chip fluorescence intensity to that without chemical substance): 0.6
- The level of expressed mRNA in the presence of chemical substance/The level of expressed mRNA in the absence of chemical substance (yeast gene YPL149W): 0.8
- The level of expressed mRNA in the presence of chemical substance/The level of expressed mRNA in the absence of chemical substance (yeast gene YPL154C): 4.0
- The level of expressed mRNA in the presence of chemical substance/ (ratio to absence of chemical substance) (yeast gene YPL194W): 1.4
- The level of expressed mRNA in the presence of chemical substance/ (ratio to absence of chemical substance) (yeast gene YPR005C): 2.7
- The level of expressed mRNA in the presence of chemical substance/The level of expressed mRNA in the absence of chemical substance (yeast gene YPR103W): 1.0
- The level of expressed mRNA in the presence of chemical substance/The level of expressed mRNA in the absence of chemical substance (yeast gene YPR108W): 1.3
- The level of expressed mRNA in the presence of chemical substance/ (in its absence), gene YPR165W (yeast gene YPR165W, ratio of DNA chip fluorescence intensity to that without chemical substance): 0.9
- The level of expressed mRNA in the presence of chemical substance/ in its absence, gene YPR184W (energy system protein genes, 2 h culture with the chemical, ratio to control without chemical): 1.5
- The level of expressed mRNA in the presence of chemical substance/ in its absence, gene YPR184W (ratio of DNA chip fluorescence intensity to that without chemical substance): 1.5
